Results on one compound are retold here after publication PMC7956560, “New 3-Aryl-2-(2-thienyl)acrylonitriles with High Activity Against Hepatoma Cells” (International Journal of Molecular Sciences, 2021).

The structures appear in SMILES notation.

The test system of data set [1] is human HepG2 hepatoblastoma cells. The data set is described as follows: Growth inhibition, crystal violet staining, HepG2. The format is cell-based. To be noted: 48 h incubation, mean ± SD, read-out: Anti-proliferative activity IC50, HepG2. The procedure: (§1) The well-differentiated p53 wild-type human hepatoblastoma cell line HepG2 (ATCC# 8065) and the highly differentiated p53 mutated human hepatocellular carcinoma cell line Huh-7 (JCRB#0403) were grown in RPMI 1640 medium supplemented with 10% fetal bovine serum and 100 U/mL penicillin and […] streptomycin. Murine AML-12 hepatocytes were obtained from ATCC (CRL-2254) and grown in DMEM/F-12 Glutamax medium supplemented with 10% fetal bovine serum, 10 µg/mL insulin, 5.5 µg/mL transferrin, 5 ng/mL selenium (Gibco ITS-G 100X) and 40 ng/mL dexamethasone (Sigma-Aldrich). All cell lines were incubated in a 37 °C, 5% CO2, 95% humidified atmosphere.
(§2) Treatment-induced changes in cell number were evaluated by crystal violet staining, as previously described. Briefly, 1.500 cells per well were seeded in 96-well plates for 24 h at 37 °C, 5% CO2. For the experiments with HepG2 and Huh-7 cell lines, cells were incubated with rising concentrations (0–20 µM) of the new compounds (1a–1o) for 48 h. AML12-cells were treated with compounds 1a, 1b, 1c, 1e, 1i and 1j for 48 h and at concentrations ranging from 0.5–64 µM. Thereafter, the cells were fixed with 1% glutaraldehyde and stained with 0.1% crystal violet (Sigma-Aldrich). The unbound dye was removed by rinsing with water. Bound crystal violet was solubilized with 0.2% Triton X-100 (Sigma-Aldrich). Light extinction of crystal violet, which increases linearly with cell number, was analyzed at 570 nm using an ELISA-Reader (Dynex Technologies, Denkendorf, Germany). All experiments were carried out in duplicate or triplicate.

Another data set has as its system human Huh-7 HCC cells. The data set is described as follows: Growth inhibition, crystal violet staining, Huh-7. The format is cell-based. To be noted: 48 h incubation, mean ± SD, read-out: Anti-proliferative activity IC50, Huh-7. The procedure:
as §1, §2

The test system of data set [2] is HepG2-tumors grown on membranes of fertilized chicken eggs. The data set is described as follows: Chorioallantoic membrane (CAM) assay. The format is in vivo. To be noted: topical treatment 72 h; 1b 0–10 µM, 1c 0–2.5 µM, sorafenib 10 µM. Here is the method:
The chorioallantoic membrane (CAM) assay was performed as described previously. Fertilized chicken eggs (Gallus gallus) were obtained from commercial sources (Valo GmbH, Germany) and incubated in a humid environment at 38 °C. On day 3 of the egg development, a window was cut in the eggshell to access the developing vascular network of the CAM. At day 10 of chicken embryo development, a sterile silicon ring (10 mm diameter) was placed on the CAM and tumor plugs of 3 × 10^6 HepG2 cells in 20 µL Matrigel (BD Biosciences) with reduced growth factors were placed inside the silicon ring. After 24 h at 38 °C in an incubator, the tumor plaques attached and connected to the (tumor-)feeding CAM microvasculature. Then, the tumor plaques were topically treated with either PBS (negative control) or PBS containing rising concentrations of 1b (0–10 µM), 1c (0–2.5 µM) or sorafenib (10 μM) for 3 days. Tumor growth and viability of the embryo were controlled daily by stereo microscopy. After 72 h of treatment, the tumors were recovered for weighing and pictures were taken using a stereomicroscope equipped with a Kappa digital camera system (Kappa Optronics GmbH, Germany). For data analysis, the tumor weight of 1c-treated and untreated control tumors was determined and the mean weight of treated vs. untreated tumors of 11 eggs for each condition was calculated. Statistical significance evaluated by one-way ANOVA tests.

Another data set concerns HepG2 cells. The data set is described as follows: LDH release assay (unspecific cytotoxicity). The format is cell-based, human. To be noted: HepG2, 0.5 and 10 µM, 12 or 24 h. Here is the method: Unspecific cytotoxicity induced by treatment with 0.5 µM and 10 µM of 1a, 1b, 1c and sorafenib (LC Laboratories, Woburn, MA, USA) was determined by measuring the release of lactate dehydrogenase (LDH) from HepG2 cells into the supernatant after 12 and 24 h (Cytotoxicity Detection KitPLUS LDH, Roche Diagnostics GmbH, Mannheim, Germany). The supernatant of treated samples was collected, and adherent non-treated cells were lysed with 2% Triton X-100 for 10 min to determine the maximum LDH release. All samples were mixed with catalyst and dye solution for 30 min, resulting in the formation of formazan dye proportional to LDH enzyme activity. The absorbance was measured at 490/630 nm using an ELISA reader (Dynex Technologies, Denkendorf, Germany) and cytotoxicity was determined by subtracting the percentage of LDH release under control conditions of those from treated samples. Experiments were performed in duplicate and data are given as mean percentage changes ± SD as compared to controls of n = 3 experiments.

The subject of data set [3] is caspase-3 activity of HepG2 cells. The data set is described as follows: Apoptosis-specific caspase-3 activity. The format is cell-based, human. To be noted: HepG2, 1 and 10 µM, 24 h. The procedure:
Changes in caspase-3 activity were measured by the cleavage of the fluorogenic substrate AC-DEVD-AMC (EMD Millipore, Billerica, MA, USA), as described previously. After 24 h of incubation with 1a, 1b, 1c, 1e and sorafenib (1 and 10 µM) the cells were harvested and lysed with lysis buffer. Subsequently, the lysates were incubated for 1 h at 37 °C with a substrate solution containing 20 μg/mL AC-DEVD-AMC, 20 mM HEPES, 10% glycerol and 2 mM DTT at pH 7.5. Substrate cleavage was measured fluorometrically using a Varioskan Flash Fluorometer (Thermo Fisher Scientific, Waltham, MA, USA; filter sets: ex 360/40 nm, em 460/10 nm). n = 3 independent measurements were performed in triplicate, and data are given as the mean percentage increase ± SD above control, which was set 100%.

A further data set deals with Pim-1. To be noted: cited from earlier work.

`CNC(=O)c1cc(Oc2ccc(NC(=O)Nc3ccc(Cl)c(C(F)(F)F)c3)cc2)ccn1` [Sorafenib, sorafenib, reference compound]: the IC50 (usually the concentration needed to halve the response being measured) was found to be 2730 ± 760 nM in data set [1] and 2500 ± 140 nM with human Huh-7 HCC cells. In data set [2], the “tumor reduction vs PBS-treated controls (in words)” value was “pronounced tumor reductions”. Besides, the “LDH release / unspecific cytotoxicity (in words)” value in the data set with HepG2 cells is reported as “do not exert considerable unspecific cytotoxicity”. In data set [3], the “caspase-3 activity (in words)” value is on record as “dose-dependently induced caspase-3 activity”. Also, the “Pim-1 inhibitory activity (in words)” value in the data set on Pim-1 is on record as “no Pim-1 inhibitory activity”.
